Assay results published in patent US20210015134A1, “CONSUMABLES” (Givaudan S.A., priority 2006, published 2021).

Legend:
Assay type in all cases: in vivo
[1] = tested on: sweet sensitive panelists; test: Comparative sensory evaluation of sweetness enhancers in sweetener solution or water (Example 1)
Protocol: Comparative sensory evaluation of sweetness enhancers in 2 or 7% sucrose
The test samples contained the potential sweetness enhancers in 0% sucrose (water), 2% sucrose, or 7% sucrose, and control samples of 0%, 2% and 7% sucrose without any additive. The sensory evaluations were conducted as follows. All samples were presented at ambient temperature in 15 ml aliquots to panels consisting of 5-9 sweet sensitive subjects of varying sweet sensitivity. After tasting each sample, the mouth was rinsed thoroughly with water at ambient temperature prior to tasting the next sample. The sucrose positive control (2% or 7%) was presented first and served as the sweetness reference to which all sweetness enhancer/sucrose combinations were directly compared.
One tasting sequence included tasting the sucrose control first, rinsing with water, tasting the sweetness enhancer/sucrose sample, rinsing with water followed by tasting the sucrose control again. Once the sequence was completed, each panelist chose the sample which was sweeter and evaluated the sweetness of each sample relative to one another.
In a second tasting sequence, this same procedure was followed for the water negative control versus the sweetness enhancer/water samples to determine the sweet taste due to the sweetness enhancer itself at each tested concentration.
Panelists evaluated the sweetness of the sweetness enhancer in water for each concentration. For their evaluation, panelists were allowed to compare any perceived sweetness of the sweetness enhancer to the 2% or 7% sucrose control to determine the relative intensity of sweetness. Mild sweet taste corresponds to the taste of 2% sucrose, strong sweet taste corresponds to the taste of 7% sucrose.
Alternatively to sucrose, the evaluation may be performed with another sweetener, for example, high fructose (55%) corn syrup (HFCS, containing 55% fructose and 45% glucose), erythritol, sucralose, aspartame, or acesulfame potassium (AceK).

[2] = tested on: sweet sensitive panelists; test: Ranking test, sweetness isointensity of enhancer in sweetener solution (Example 3a)
Protocol: Ranking Tests to Determine the Sweetness Isointensity of Sweetness Enhancers to Sucrose Solutions
For comparative ranking, samples of 0.5%, 1%, 1.5%, 7%, 8%, 9%, 10% and 11% sucrose solutions were prepared.
3a) Sweetness Isointensity of Sweetness Enhancer in Sucrose Solutions
The sensory evaluation was conducted using a ranking method. Samples at ambient temperature were randomly presented in 15 ml blind aliquots (unidentifiable by panelists). Panels consisted of 10 sweet sensitive subjects and samples were presented in 4 replications over 2 sessions. After tasting each sample, the mouth was rinsed thoroughly with water at ambient temperature prior to tasting the next sample. Panelists were presented with 7%, 8%, 9%, 10%, 11% sucrose samples and a sixth sample of 7% sucrose with a sweetness enhancer in a concentration near its sweetness detection threshold. They were asked to rank the samples from low to high with respect to perceived sweet taste. R-indices were calculated for 7% sucrose with the sweetness enhancer versus 7%, 8%, 9%, 10% or 11% sucrose.

[3] = tested on: sweet sensitive panelists; test: Ranking test, near threshold sweetness isointensity of enhancer in water (Example 3b); conditions: for isointensity to sucrose solution: 20 ppm in water, by interpolation
Protocol: The sensory evaluation was conducted using a ranking method. Samples at ambient temperature were randomly presented in 15 ml blind aliquots (unidentifiable by panelists). […] After tasting each sample, the mouth was rinsed thoroughly with water at ambient temperature prior to tasting the next sample. […] They were asked to rank the samples from low to high with respect to perceived sweet taste.

[4] = tested on: sweet sensitive panelists; test: Paired comparison of sweetness enhancers in water versus sucrose (Example 4, modified)
Protocol: Paired Comparisons of Sweetness Enhancers and Mixtures Thereof in Water and 7% Sucrose
Samples of sweetness enhancers were prepared in water or 7% sucrose. One, two or three sweetness enhancers were used in a sample. All samples were presented to panelists at ambient temperature. The sensory evaluation was conducted using a paired comparison method. […] Samples were paired randomly and presented in unidentifiable pairs of two (left and right) to the panelists in random order. The sample on the left was tasted first, followed by rinsing the mouth with water, then tasting the sample on the right. Once completing the sequence, each panelist ranked the pair of samples for sweetness then evaluated samples with respect to one another with the following descriptors (in ascending order): […]

sweet sensitive subjects = test: Sweetness quality evaluation (time of onset, localization, duration); conditions: for Sensory evaluation of sweetness intensity: sweetness quality
Protocol: (§1) Rebaudioside A (99%+, purified from plant extract, Sweet Aloha Farms, LLC) (1 ppm, 10 ppm, 20 ppm, 30 ppm) in 2% sucrose samples was evaluated for the qualities of the sweetness of the samples (time of onset, localization, duration). The sensory evaluations were conducted as follows. All samples were presented at ambient temperature in 15 ml aliquots and presented blindly to sweet sensitive subjects of varying sweet sensitivity. Subjects tasted the samples and were asked to evaluate the quality of sweetness. Sucrose solutions (2% and 7%) were presented as references.
Rebaudioside A (99%+, purified from plant extract, Sweet Aloha Farms, LLC) (1 ppm, 10 ppm, 20 ppm, 30 ppm) in 7% sucrose samples were evaluated for the qualities of the sweetness of the samples (time of onset, localization, duration). The sensory evaluations were conducted as follows. All samples were presented at ambient temperature in 15 ml aliquots and presented blindly to sweet sensitive subjects of varying sweet sensitivity. Subjects tasted the samples and were asked to evaluate the quality of the sweetness. Sucrose solutions (2% and 7%) were presented as references to evaluate the sweetness of the rebaudioside A samples.
as §1, with “Stevioside extract (95%+,” for “Rebaudioside A (99%+,”, “Apin Chemicals) (20” for “Sweet Aloha Farms, LLC) (1 ppm, 10 ppm, 20”, “30 ppm, 40 ppm, 50” for “30”, “ppm) was evaluated” for “ppm)”, “sucrose” for “sucrose samples was evaluated”, “sweetness qualities.” for “quality of sweetness.”
Stevioside (20 ppm, 30 ppm, 40 ppm, 50 ppm) was evaluated in 7% sucrose for the qualities of the sweetness of the samples (time of onset, localization, duration). The sensory evaluations were conducted as follows. All samples were presented at ambient temperature in 15 ml aliquots and presented blindly to sweet sensitive subjects of varying sweet sensitivity. Subjects tasted the samples and were asked to evaluate the sweetness qualities. Sucrose solutions (2% and 7%) were presented as references to evaluate the sweetness of the stevioside samples.

panelists = test: Fractionated swingle extract: comparative sensory evaluation in 0% and 2% sucrose; conditions: from fractions at 60 ppm in 2% sucrose and LC-MS analysis
Protocol: Swingle extract, comprising 80% total mogroside content by weight, was fractionated by reversed phase (C-18) flash chromatography. Compounds were eluted using a mixture of methanol (MeOH) in water starting at 30% MeOH (264 ml) followed by a linear gradient of 30-80% MeOH (1320 ml) then finally the column was flushed with 80% MeOH (264 ml). The solvents were introduced at a flow rate of 30 ml/min throughout the separation procedure. Eluted compounds were visualized with a UV detector set at 210 nm and a Corona light scattering detector. Collected fractions were pooled according to the table below then freeze dried to powders.
The powders corresponding to various pooled fractions as given in the table below were dissolved in a concentration of 60 ppm in either 0% or 2% sucrose. The sample in 0% sucrose when determined to be sweet was in addition to the 0% sucrose control also compared to a 2% sucrose control and to the other fractions to estimate the degree of sweetness.

[5] = 20 ppm in 7% sucrose vs 7% sucrose
[6] = 20 ppm in 7% sucrose vs 8% sucrose
[7] = 20 ppm in 7% sucrose vs 9% sucrose
[8] = 20 ppm in 7% sucrose vs 10% sucrose
[9] = 20 ppm in 7% sucrose vs 11% sucrose
[10] = 20 ppm in water vs 0.5% sucrose
[11] = 20 ppm in water vs 1.5% sucrose

C=C1C[C@@]23CC[C@H]4[C@@](C)(CCC[C@@]4(C)C(=O)O[C@@H]4O[C@H](CO)[C@@H](O)[C@H](O)[C@H]4O)[C@@H]2CC[C@]1(O[C@@H]1O[C@H](CO)[C@@H](O)[C@H](O[C@@H]2O[C@H](CO)[C@@H](O)[C@H](O)[C@H]2O)[C@H]1O[C@@H]1O[C@H](CO)[C@@H](O)[C@H](O)[C@H]1O)C3 [Rebaudioside A]
Sensory evaluation of sweetness intensity ([1]; 1 ppm in 2% sucrose): barely perceived as sweeter than sucrose control
Sensory evaluation of sweetness intensity ([1]; 1 ppm in 7% sucrose): very weakly sweeter than sucrose control
Sensory evaluation of sweetness intensity ([1]; 1 ppm in water (Example 8A)): no sweetness
Sensory evaluation of sweetness intensity ([1]; 1 ppm in water (Example 8B)): no sweetness
Sensory evaluation of sweetness intensity ([1]; 10 ppm in 2% sucrose): notably sweeter than sucrose control
Sensory evaluation of sweetness intensity ([1]; 10 ppm in 7% sucrose): notably sweeter than sucrose control
Sensory evaluation of sweetness intensity ([1]; 10 ppm in water (Example 8A)): barely perceivable, late onsetting sweet
Sensory evaluation of sweetness intensity ([1]; 10 ppm in water (Example 8B)): barely perceivable, late onsetting sweet
Sensory evaluation of sweetness intensity ([1]; 20 ppm in 2% sucrose): much sweeter than sucrose control
Sensory evaluation of sweetness intensity ([1]; 20 ppm in 7% sucrose): much sweeter than sucrose control
Sensory evaluation of sweetness intensity ([1]; 20 ppm in water (Example 8A)): barely perceivable sweetness
Sensory evaluation of sweetness intensity ([1]; 20 ppm in water (Example 8B)): barely perceivable sweetness
Sensory evaluation of sweetness intensity ([1]; 30 ppm in 2% sucrose): substantially sweeter than sucrose control
Sensory evaluation of sweetness intensity ([1]; 30 ppm in 7% sucrose): substantially sweeter than sucrose control
Sensory evaluation of sweetness intensity ([1]; 30 ppm in water (Example 8A)): very weak sweetness far below the 2% sucrose control
Sensory evaluation of sweetness intensity ([1]; 30 ppm in water (Example 8B)): very weak sweetness far below the 2% sucrose control
R-index [2, 5]: 91%
Rebaudioside A sample sweetness [2, 5]: sweeter
R-index [2, 6]: 72%
Rebaudioside A sample sweetness [2, 6]: sweeter
R-index [2, 7]: 7%
Rebaudioside A sample sweetness [2, 7]: less sweet
R-index [2, 8]: 0%
Rebaudioside A sample sweetness [2, 8]: less sweet
R-index [2, 9]: 0%
Rebaudioside A sample sweetness [2, 9]: less sweet
sweetness isointensity to sucrose ([2]; 20 ppm in 7% sucrose, by interpolation): 8.5 % sucrose
R-index [3, 10]: 84%
sample sweetness (RedA, 20 ppm) [3, 10]: sweeter
R-index ([3]; 20 ppm in water vs 1% sucrose): 12%
sample sweetness (RedA, 20 ppm) ([3]; 20 ppm in water vs 1% sucrose): less sweet
R-index [3, 11]: 0%
sample sweetness (RedA, 20 ppm) [3, 11]: less sweet
isointensity to sucrose solution ([3]; listed as rebaudioside): about 0.75 % sucrose
isointensity to sucrose solution ([3]; listed as rebaudioside A): 0.75 % sucrose
Result of comparison ([4]; 1 ppm in water vs 0% sucrose): isosweet
Result of comparison ([4]; 10 ppm in water vs 0% sucrose): weakly sweeter
Result of comparison ([4]; 10 ppm in water vs 0.5% sucrose): notably less sweet
Result of comparison [4, 10]: notably sweeter
Result of comparison ([4]; 20 ppm in water vs 1% sucrose): less sweet
isointensity to sucrose solution ([4]; 30 ppm in water): 1 % sucrose
Result of comparison ([4]; 30 ppm in water vs 1% sucrose): isosweet
Result of comparison ([4]; 30 ppm in water vs 1.5% sucrose): significantly less sweet
Sensory evaluation of sweetness intensity (strength, onset, localisation, duration) (sweet sensitive subjects; 1 ppm in 7% sucrose): immediate onset, full mouth sweet, non-lingering
Sensory evaluation of sweetness intensity (strength, onset, localisation, duration) (sweet sensitive subjects; 10 ppm in 7% sucrose): immediate onset, full mouth sweet, non-lingering
Sensory evaluation of sweetness intensity (strength, onset, localisation, duration) (sweet sensitive subjects; 20 ppm in 7% sucrose): immediate onset, full mouth sweet, non-lingering
Sensory evaluation of sweetness intensity (sweet sensitive subjects; 1 ppm in 2% sucrose): immediate onset, full mouth sweet, non-lingering
Sensory evaluation of sweetness intensity (sweet sensitive subjects; 10 ppm in 2% sucrose): immediate onset full mouth sweet, non-lingering
Sensory evaluation of sweetness intensity (sweet sensitive subjects; 20 ppm in 2% sucrose): immediate onset, full mouth sweet, non-lingering

C[C@H](CC[C@@H](O[C@@H]1O[C@H](CO)[C@@H](O)[C@H](O)[C@H]1O[C@@H]1O[C@H](CO)[C@@H](O)[C@H](O)[C@H]1O)C(C)(C)O)[C@H]1CC[C@@]2(C)[C@H]3CC=C4[C@@H](CC[C@H](O[C@@H]5O[C@H](CO[C@@H]6O[C@H](CO)[C@@H](O)[C@H](O)[C@H]6O)[C@@H](O)[C@H](O)[C@H]5O)C4(C)C)[C@]3(C)[C@H](O)C[C@]12C [mogroside IV]
contribution to the observed enhancement effect of swingle extract (panelists): contributing marginally

C[C@H](CC[C@@H](O[C@@H]1O[C@H](CO[C@@H]2O[C@H](CO)[C@@H](O)[C@H](O)[C@H]2O)[C@@H](O)[C@H](O)[C@H]1O[C@@H]1O[C@H](CO)[C@@H](O)[C@H](O)[C@H]1O)C(C)(C)O)[C@H]1CC[C@@]2(C)[C@@H]3CC=C4[C@@H](CC[C@H](O[C@@H]5O[C@H](CO[C@@H]6O[C@H](CO)[C@@H](O)[C@H](O)[C@H]6O)[C@@H](O)[C@H](O)[C@H]5O)C4(C)C)[C@]3(C)[C@H](O)C[C@]12C [mogroside V]
contribution to the observed enhancement effect of swingle extract (panelists): mainly due to mogroside V

C[C@H](CC[C@@H](O[C@@H]1O[C@H](CO[C@@H]2O[C@H](CO)[C@@H](O)[C@H](O)[C@H]2O)[C@@H](O)[C@H](O)[C@H]1O[C@@H]1O[C@H](CO)[C@@H](O)[C@H](O)[C@H]1O)C(C)(C)O)[C@H]1CC[C@@]2(C)[C@@H]3CC=C4[C@@H](CC[C@H](O[C@@H]5O[C@H](CO)[C@@H](O)[C@H](O)[C@H]5O)C4(C)C)[C@]3(C)[C@H](O)C[C@]12C [siamenoside I]
contribution to the observed enhancement effect of swingle extract (panelists): contributing marginally
